Among the test systems are DU-145; HCT-116; HCT-15; HOP-62; MDA-MB-435; MOLT-4; NCI-H226; NCI-H460; OVCAR-3; SF-268; SF-295; SK-MEL-28; SK-MEL-2; SK-MEL-5; SN12C; T47D; TK-10; U-251; EKVX; MDA-N.
Holding throughout (experiment): inhibition of tumour cell growth, NCI panel, 48 h

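Assay format: 96-well plates, 48-hour exposure. Here, GI50 denotes the concentration required for 50% inhibition of growth.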 Calls of active or inactive are those of the source. No stated cut-off is given here; in the data, active = GI50 up to about 1.1 µM and inactive = higher.

Regarding `CCCc1cn2c(/C=N/NC(=N)N)c(-c3ccc(Cl)c([N+](=O)[O-])c3)nc2s1`, the GI50 in the assay on DU-145 is 1.77 µM (inactive); with HCT-116, 1.22 µM (inactive); with HCT-15, 1.7 µM; in the assay on HOP-62 it was 1.88 µM (inactive); in the assay with MDA-MB-435, 1.75 µM (inactive); in the assay on MOLT-4, 0.171 µM (active). In addition, the GI50 is 1.99 µM (inactive) in the assay with NCI-H226; 2.1 µM (inactive) with NCI-H460; 1.55 µM (inactive) in the assay on OVCAR-3; 2.36 µM (inactive) in the assay on SF-268; 1.66 µM (inactive) with SF-295; 1.64 µM (inactive) in the assay on SK-MEL-28. The GI50 was 1.71 µM (inactive) in the assay with SK-MEL-2; 1.67 µM (inactive) in the assay with SK-MEL-5; 1.84 µM (inactive) in the assay with SN12C; 1.42 µM (inactive) in the assay on T47D; 1.54 µM (inactive) in the assay with TK-10; 1.63 µM (inactive) with U-251.
As for `NCCSC1(O)C(=O)c2ccccc2-c2ccccc21` (centres undefined), the GI50 in the assay with DU-145 was 1.06 µM (active); in the assay on EKVX, 1.66 µM (inactive); in the assay with HCT-116 it was 0.176 µM (active); in the assay with HCT-15 it was 1.49 µM; with HOP-62 it was 1.53 µM (inactive); in the assay with MDA-MB-435, < 0.01 µM (active). In addition, the GI50 in the assay with MOLT-4 is 0.181 µM (active); in the assay on NCI-H226, 1.33 µM (inactive); in the assay on NCI-H460 it was 1.78 µM (inactive); with OVCAR-3 it was < 0.01 µM (active); in the assay with SF-268, 1.5 µM (inactive); with SF-295 it was < 0.01 µM (active). Moreover, the GI50 was 1.21 µM (inactive) in the assay on SK-MEL-28; 1.61 µM (inactive) in the assay with SK-MEL-2; 0.265 µM (active) in the assay with SK-MEL-5; 1.36 µM (inactive) in the assay with SN12C; 2.1 µM (inactive) in the assay on T47D; 1.73 µM (inactive) in the assay with TK-10. The GI50 in the assay with U-251 was 0.713 µM (active).
For the molecule `CC(C)(C)OC(=O)NC(Cc1ccccc1)NC(=O)NC(=O)OCc1ccccc1` (centres undefined), the GI50 with DU-145 was 87.1 µM (inactive); in the assay with EKVX, > 100 µM (inactive); with HCT-116, 19.2 µM (inactive); in the assay on HCT-15 it was > 100 µM; with HOP-62 it was 31.3 µM (inactive); with MDA-MB-435, > 100 µM (inactive). The GI50 with MDA-N is 64 µM (inactive); with MOLT-4, > 100 µM (inactive); in the assay with NCI-H226 it was 28.3 µM (inactive); with NCI-H460, 63.7 µM (inactive); with OVCAR-3, 42.2 µM (inactive); with SF-268, 40.3 µM (inactive). For the same molecule, the GI50 in the assay with SF-295 was 36.6 µM (inactive); with SK-MEL-28, 38.9 µM (inactive); in the assay on SK-MEL-2, 34.3 µM (inactive); in the assay on SK-MEL-5, 26.7 µM (inactive); in the assay on SN12C it was > 100 µM (inactive); in the assay with TK-10, 53.2 µM (inactive). The GI50 in the assay on U-251 was 58.5 µM (inactive).
For the molecule `CCC[C@H](C)C[C@H](C)C[C@H](C)/C=C(\C)[C@@H](O)[C@@H](C)C(=O)CC`, the GI50 is 23.5 µM (inactive) in the assay with DU-145; 18.8 µM (inactive) with EKVX; 17.5 µM (inactive) in the assay on HCT-116; 21 µM in the assay with HCT-15; 20.4 µM (inactive) in the assay with HOP-62; 20.6 µM (inactive) with MDA-MB-435. Besides, the GI50 in the assay with MOLT-4 is 21.4 µM (inactive); with NCI-H226 it was 21 µM (inactive); in the assay on NCI-H460 it was 24 µM (inactive); with OVCAR-3 it was 19.7 µM (inactive); in the assay on SF-268 it was 20.9 µM (inactive); in the assay with SF-295, 22.9 µM (inactive). For the same molecule, the GI50 in the assay with SK-MEL-28 is 18.7 µM (inactive); in the assay with SK-MEL-2, 24.9 µM (inactive); in the assay with SK-MEL-5 it was 18.9 µM (inactive); in the assay on SN12C, 18.8 µM (inactive); with T47D it was 23.6 µM (inactive); with TK-10, 23.2 µM (inactive). Further, the GI50 with U-251 is 22.4 µM (inactive).
Take `CC1(C)OC1CC/C(=C/CBr)CBr` (centres undefined): the GI50 is 20.9 µM (inactive) with DU-145; 18.1 µM (inactive) in the assay on EKVX; 18.1 µM (inactive) with HCT-116; 17.3 µM (inactive) with HOP-62; 17.8 µM (inactive) in the assay on MDA-MB-435; 15.3 µM (inactive) in the assay on MDA-N. Moreover, the GI50 with MOLT-4 was 16.7 µM (inactive); in the assay with NCI-H226, 21.7 µM (inactive); in the assay on NCI-H460 it was 15 µM (inactive); with OVCAR-3, 18.7 µM (inactive); in the assay with SF-268, 15.5 µM (inactive); in the assay with SF-295, 14.1 µM (inactive). Also, the GI50 with SK-MEL-28 was 17.2 µM (inactive); with SK-MEL-2, 14.8 µM (inactive); in the assay on SK-MEL-5, 14.1 µM (inactive); in the assay on SN12C, 15.6 µM (inactive); in the assay with TK-10 it was 18.2 µM (inactive); with U-251, 15.6 µM (inactive).
As to `Clc1ccc(Nc2nnc(CNc3ccc(-c4nnc(Nc5ccc(Cl)cc5)s4)cc3)s2)cc1`, the GI50 in the assay with DU-145 was 22.5 µM (inactive); in the assay on EKVX it was 49.1 µM (inactive); with HCT-116 it was 12.5 µM (inactive); in the assay on HCT-15, 25.1 µM; in the assay with HOP-62 it was 30.4 µM (inactive); with MDA-MB-435 it was 28.1 µM (inactive). The GI50 in the assay on MDA-N is 18.2 µM (inactive); in the assay with MOLT-4, 19 µM (inactive); with NCI-H226, 34.9 µM (inactive); in the assay on NCI-H460, 15.2 µM (inactive); in the assay on SF-268, 26.9 µM (inactive); in the assay on SF-295, 24.9 µM (inactive). The GI50 with SK-MEL-28 was 33.3 µM (inactive); with SK-MEL-2, 11.7 µM (inactive); in the assay on SK-MEL-5, 24.9 µM (inactive); in the assay on SN12C, 47.8 µM (inactive); with TK-10, 46.3 µM (inactive); in the assay with U-251, 24.2 µM (inactive).
`O=C(/C=C(\C(=O)c1cccs1)c1cccs1)c1ccc(C(=O)/C=C(\C(=O)c2cccs2)c2cccs2)cc1`: the GI50 in the assay on DU-145 is > 100 µM (inactive); in the assay on EKVX, > 100 µM (inactive); in the assay on HCT-116, > 100 µM (inactive); in the assay on HCT-15, > 100 µM; in the assay with HOP-62 it was > 100 µM (inactive); with MDA-MB-435 it was > 100 µM (inactive). The GI50 with MOLT-4, with NCI-H226, in the assay with NCI-H460, in the assay with SF-268, in the assay with SF-295 and in the assay on SK-MEL-28 was > 100 µM (inactive) in each case. The GI50 in the assay on SK-MEL-2, in the assay with SK-MEL-5, with SN12C, in the assay on T47D, in the assay on TK-10 and in the assay with U-251 was > 100 µM (inactive) throughout.
For `CN(C)C1(N(C)C)Oc2c(c(=O)n(C)c(=O)n2C)C(c2ccc(F)cc2)C1(F)F` (centres undefined), the GI50 was > 100 µM (inactive) in the assay on DU-145; > 100 µM (inactive) with EKVX; > 100 µM (inactive) with HCT-116; > 100 µM with HCT-15; > 100 µM (inactive) in the assay on HOP-62; > 100 µM (inactive) with MDA-MB-435. For the same molecule, the GI50 in the assay with NCI-H226, in the assay on NCI-H460, in the assay on OVCAR-3, in the assay with SF-268, with SF-295 and in the assay on SK-MEL-28 was > 100 µM (inactive) each time. For the same molecule, the GI50 with SK-MEL-2, with SK-MEL-5, with T47D, in the assay with TK-10 and in the assay with U-251 was > 100 µM (inactive) each time.
Take `CCC(=O)O[C@H]1CC[C@H]2[C@@H]3CCC4=CC(=O)C=C[C@]4(O)[C@H]3CC[C@]12C`: the GI50 was 22.8 µM (inactive) in the assay on DU-145; 25.9 µM (inactive) in the assay with EKVX; 21.9 µM (inactive) in the assay with HCT-116; 15 µM with HCT-15; 29.4 µM (inactive) in the assay with HOP-62; 3.11 µM (inactive) in the assay on MDA-MB-435. Further, the GI50 with MDA-N was 2.95 µM (inactive); with MOLT-4, 8.87 µM (inactive); in the assay on NCI-H226 it was > 100 µM (inactive); with NCI-H460, 16.3 µM (inactive); with OVCAR-3 it was 19.8 µM (inactive); in the assay on SF-268, 31 µM (inactive). In addition, the GI50 was 26.1 µM (inactive) in the assay with SF-295; 67.6 µM (inactive) in the assay on SK-MEL-28; 15.9 µM (inactive) with SK-MEL-2; 5.22 µM (inactive) in the assay with SK-MEL-5; 41.9 µM (inactive) in the assay with SN12C; 57.4 µM (inactive) with TK-10. For the same molecule, the GI50 in the assay on U-251 was 20.5 µM (inactive).
In the case of `Cc1ccc(S(=O)(=O)Nn2c(S)c(C#N)c(-c3ccc(N(C)C)cc3)c(C#N)c2=O)cc1`, the GI50 in the assay on DU-145 is 40.6 µM (inactive); in the assay with EKVX it was 23.6 µM (inactive); with HCT-116, 28.2 µM (inactive); in the assay with HCT-15 it was 20.3 µM; with MDA-MB-435 it was 19.6 µM (inactive); in the assay with MDA-N it was > 100 µM (inactive). For the same molecule, the GI50 was 23.4 µM (inactive) in the assay with MOLT-4; 2.16 µM (inactive) in the assay on NCI-H226; 15.2 µM (inactive) with NCI-H460; 34.2 µM (inactive) with SF-295; 20.1 µM (inactive) in the assay with SK-MEL-28; 17.7 µM (inactive) in the assay on SK-MEL-5. The GI50 with SN12C is 26.4 µM (inactive); with TK-10 it was 19.8 µM (inactive); in the assay on U-251, 21.5 µM (inactive).
With `CO[C@@H]1C[C@H]2N3CC[C@@]2(c2cc4c(cc2C3)OCO4)[C@H]2O[C@@H]12`, the GI50 in the assay with DU-145 was > 100 µM (inactive); with EKVX it was > 100 µM (inactive); with HCT-116, > 100 µM (inactive); with HCT-15, > 100 µM; in the assay with HOP-62 it was > 100 µM (inactive); in the assay on MDA-MB-435 it was > 100 µM (inactive). Besides, the GI50 is > 100 µM (inactive) in the assay with MDA-N; > 100 µM (inactive) in the assay with MOLT-4; 1.34 µM (inactive) in the assay with NCI-H226; > 100 µM (inactive) in the assay on NCI-H460; > 100 µM (inactive) in the assay with OVCAR-3; > 100 µM (inactive) with SF-268. Besides, the GI50 with SF-295 was > 100 µM (inactive); with SK-MEL-28, > 100 µM (inactive); in the assay with SK-MEL-2 it was > 100 µM (inactive); in the assay with SK-MEL-5, 0.157 µM (active); with SN12C it was > 100 µM (inactive); in the assay with TK-10, > 100 µM (inactive). Besides, in the assay with U-251, the GI50 was > 100 µM (inactive).

Values taken from ChEMBL document CHEMBL1201862, “PubChem BioAssay data set” (2004).
